Laboratory results reported in PubChem BioAssay (NCI).
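1) Cells in 96-well plates. 2) Compound, 48 h, 5 concentrations. 3) Linear interpolation between surrounding doses. 4) Unreached endpoint = highest concentration. TGI: concentration producing complete growth inhibition.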

Columns and labels:
Experiment in all cases: NCI anticancer screen, dose series, 48 h
MDA-N = tested on: MDA-N
NCI-H522 lung = tested on: NCI-H522 lung
MDA-MB-231 breast = tested on: MDA-MB-231 breast
A549 NSCLC = tested on: A549 NSCLC
DU-145 prostate = tested on: DU-145 prostate
MDA-MB-435 = tested on: MDA-MB-435
OVCAR-4 ovarian = tested on: OVCAR-4 ovarian
HCT-15 colon = tested on: HCT-15 colon
MALME-3M melanoma = tested on: MALME-3M melanoma
K-562 leukemia = tested on: K-562 leukemia
HCT-116 colon = tested on: HCT-116 colon
BT-549 breast = tested on: BT-549 breast
PC-3 prostate = tested on: PC-3 prostate
HOP-92 NSCLC = tested on: HOP-92 NSCLC
KM12 colon = tested on: KM12 colon
HL-60(TB) leukemia = tested on: HL-60(TB) leukemia
A498 renal = tested on: A498 renal
SK-OV-3 ovarian = tested on: SK-OV-3 ovarian
SK-MEL-2 melanoma = tested on: SK-MEL-2 melanoma
SW-620 colon = tested on: SW-620 colon
U251 CNS = tested on: U251 CNS
MOLT-4 leukemia = tested on: MOLT-4 leukemia
SNB-75 CNS = tested on: SNB-75 CNS
UACC-257 melanoma = tested on: UACC-257 melanoma
LOX IMVI melanoma = tested on: LOX IMVI melanoma
RXF 393 renal = tested on: RXF 393 renal
OVCAR-8 ovarian = tested on: OVCAR-8 ovarian
SF-295 CNS = tested on: SF-295 CNS
EKVX NSCLC = tested on: EKVX NSCLC
RPMI-8226 leukemia = tested on: RPMI-8226 leukemia
TK-10 renal = tested on: TK-10 renal
NCI-H226 lung = tested on: NCI-H226 lung
HOP-62 NSCLC = tested on: HOP-62 NSCLC
UACC-62 melanoma = tested on: UACC-62 melanoma
SF-268 CNS = tested on: SF-268 CNS
CAKI-1 renal = tested on: CAKI-1 renal
IGROV1 ovarian = tested on: IGROV1 ovarian
OVCAR-5 ovarian = tested on: OVCAR-5 ovarian
HCC-2998 colon = tested on: HCC-2998 colon
CCRF-CEM leukemia = tested on: CCRF-CEM leukemia
ACHN renal = tested on: ACHN renal
SR leukemia = tested on: SR leukemia
SN12C renal = tested on: SN12C renal
SNB-19 CNS = tested on: SNB-19 CNS
MCF7 breast = tested on: MCF7 breast
786-0 renal = tested on: 786-0 renal
COLO 205 colon = tested on: COLO 205 colon
UO-31 renal = tested on: UO-31 renal
M14 melanoma = tested on: M14 melanoma
NCI-H460 lung = tested on: NCI-H460 lung
HT29 colon = tested on: HT29 colon
SK-MEL-28 melanoma = tested on: SK-MEL-28 melanoma
NCI-H23 lung = tested on: NCI-H23 lung
HS 578T breast = tested on: HS 578T breast
SK-MEL-5 melanoma = tested on: SK-MEL-5 melanoma
NCI/ADR-RES ovarian = tested on: NCI/ADR-RES ovarian
SF-539 CNS = tested on: SF-539 CNS
T-47D breast = tested on: T-47D breast
OVCAR-3 ovarian = tested on: OVCAR-3 ovarian

For CN(C)CCn1nc(N)c2nc3cc(C(F)(F)F)ccc3nc21, the TGI (MDA-N) was over 100 µM, the TGI (NCI-H522 lung) was over 100 µM and the TGI (MDA-MB-231 breast) was over 100 µM. The TGI (A549 NSCLC) was over 100 µM, the TGI (DU-145 prostate) was over 100 µM and the TGI (MDA-MB-435) was over 100 µM. It also gave a TGI (OVCAR-4 ovarian) of over 100 µM, a TGI (HCT-15 colon) of over 100 µM and a TGI (MALME-3M melanoma) of over 100 µM. It also gave a TGI (K-562 leukemia) of over 100 µM, a TGI (HCT-116 colon) of over 100 µM and a TGI (BT-549 breast) of over 100 µM. The TGI (PC-3 prostate) was over 100 µM, the TGI (HOP-92 NSCLC) was over 100 µM and the TGI (KM12 colon) was over 100 µM. For the same compound, the TGI (HL-60(TB) leukemia) was over 100 µM, the TGI (A498 renal) was over 100 µM and the TGI (SK-OV-3 ovarian) was over 100 µM. The TGI (SK-MEL-2 melanoma) was over 100 µM, the TGI (SW-620 colon) was over 100 µM and the TGI (U251 CNS) was over 100 µM. For the same compound, the TGI (MOLT-4 leukemia) was over 100 µM, the TGI (SNB-75 CNS) was 72 µM and the TGI (UACC-257 melanoma) was over 100 µM. It also gave a TGI (LOX IMVI melanoma) of over 100 µM, a TGI (RXF 393 renal) of over 100 µM and a TGI (OVCAR-8 ovarian) of over 100 µM. It also gave a TGI (SF-295 CNS) of over 100 µM, a TGI (EKVX NSCLC) of over 100 µM and a TGI (RPMI-8226 leukemia) of over 100 µM. It also gave a TGI (TK-10 renal) of over 100 µM, a TGI (NCI-H226 lung) of over 100 µM and a TGI (HOP-62 NSCLC) of over 100 µM. For the same compound, the TGI (UACC-62 melanoma) was over 100 µM, the TGI (SF-268 CNS) was over 100 µM and the TGI (CAKI-1 renal) was over 100 µM. The TGI (IGROV1 ovarian) was over 100 µM, the TGI (OVCAR-5 ovarian) was over 100 µM and the TGI (HCC-2998 colon) was over 100 µM. The TGI (CCRF-CEM leukemia) was over 100 µM, the TGI (ACHN renal) was over 100 µM and the TGI (SR leukemia) was over 100 µM. For the same compound, the TGI (SN12C renal) was over 100 µM, the TGI (SNB-19 CNS) was over 100 µM and the TGI (MCF7 breast) was over 100 µM. It also gave a TGI (786-0 renal) of over 100 µM, a TGI (COLO 205 colon) of over 100 µM and a TGI (UO-31 renal) of over 100 µM. For the same compound, the TGI (M14 melanoma) was over 100 µM, the TGI (NCI-H460 lung) was over 100 µM and the TGI (HT29 colon) was over 100 µM. For the same compound, the TGI (SK-MEL-28 melanoma) was over 100 µM, the TGI (NCI-H23 lung) was over 100 µM and the TGI (HS 578T breast) was over 100 µM. It also gave a TGI (SK-MEL-5 melanoma) of over 100 µM and a TGI (NCI/ADR-RES ovarian) of over 100 µM.
Compound COP(C)(=O)C(Cc1c[nH]c2ccccc12)NC(=O)OCc1ccccc1 (configuration not stated) has a TGI (MDA-N) of over 100 µM, a TGI (MDA-MB-231 breast) of over 100 µM and a TGI (A549 NSCLC) of over 100 µM. For the same compound, the TGI (DU-145 prostate) was over 100 µM, the TGI (MDA-MB-435) was over 100 µM and the TGI (OVCAR-4 ovarian) was over 100 µM. For the same compound, the TGI (HCT-15 colon) was over 100 µM, the TGI (MALME-3M melanoma) was over 100 µM and the TGI (K-562 leukemia) was over 100 µM. It also gave a TGI (HCT-116 colon) of over 100 µM, a TGI (BT-549 breast) of over 100 µM and a TGI (PC-3 prostate) of over 100 µM. For the same compound, the TGI (HOP-92 NSCLC) was over 100 µM, the TGI (KM12 colon) was over 100 µM and the TGI (HL-60(TB) leukemia) was over 100 µM. It also gave a TGI (A498 renal) of over 100 µM, a TGI (SK-OV-3 ovarian) of over 100 µM and a TGI (SK-MEL-2 melanoma) of over 100 µM. The TGI (SW-620 colon) was over 100 µM, the TGI (U251 CNS) was over 100 µM and the TGI (MOLT-4 leukemia) was over 100 µM. It also gave a TGI (UACC-257 melanoma) of over 100 µM, a TGI (LOX IMVI melanoma) of over 100 µM and a TGI (SF-539 CNS) of over 100 µM. It also gave a TGI (RXF 393 renal) of over 100 µM, a TGI (OVCAR-8 ovarian) of over 100 µM and a TGI (SF-295 CNS) of over 100 µM. For the same compound, the TGI (EKVX NSCLC) was over 100 µM, the TGI (RPMI-8226 leukemia) was over 100 µM and the TGI (TK-10 renal) was over 100 µM. The TGI (T-47D breast) was over 100 µM, the TGI (NCI-H226 lung) was over 100 µM and the TGI (HOP-62 NSCLC) was over 100 µM. It also gave a TGI (UACC-62 melanoma) of over 100 µM, a TGI (SF-268 CNS) of over 100 µM and a TGI (CAKI-1 renal) of over 100 µM. It also gave a TGI (IGROV1 ovarian) of over 100 µM, a TGI (OVCAR-5 ovarian) of over 100 µM and a TGI (HCC-2998 colon) of over 100 µM. For the same compound, the TGI (CCRF-CEM leukemia) was over 100 µM, the TGI (ACHN renal) was over 100 µM and the TGI (SN12C renal) was over 100 µM. The TGI (SNB-19 CNS) was over 100 µM, the TGI (MCF7 breast) was over 100 µM and the TGI (786-0 renal) was over 100 µM. It also gave a TGI (OVCAR-3 ovarian) of over 100 µM, a TGI (COLO 205 colon) of over 100 µM and a TGI (UO-31 renal) of over 100 µM. For the same compound, the TGI (M14 melanoma) was over 100 µM, the TGI (NCI-H460 lung) was over 100 µM and the TGI (HT29 colon) was over 100 µM. For the same compound, the TGI (SK-MEL-28 melanoma) was over 100 µM, the TGI (NCI-H23 lung) was over 100 µM and the TGI (HS 578T breast) was over 100 µM. For the same compound, the TGI (SK-MEL-5 melanoma) was over 100 µM and the TGI (NCI/ADR-RES ovarian) was over 100 µM.
